Patent publication US9139596B2, “Cyclic prodrugs of duocarmycin analogs” (The Scripps Research Institute, priority 2012, dated 2015)
Like-named read-outs stand apart in the source and are kept apart here.

Assays:
[1] = test system: L1210 murine leukemia cell line; test: In vitro cytotoxic activity (cell growth inhibition), L1210; type: cell-based
Protocol: In Vitro Cytotoxic Activity. Both (+)- and ent-(−)-6 and their N-Boc precursors 16 were tested for cell growth inhibition in a cytotoxic assay with the L1210 murine leukemia cell line.

[2] = test system: L1210 murine leukemia cells implanted ip; conditions: previously established; cited from earlier work
[3] = test system: L1210 murine leukemia cells implanted ip; test: In vivo antitumor activity (L1210, ip); conditions: for Surviving Mice: live animals after 250 days
Protocol: Therefore, the in vivo antitumor activity of (+)-6 was assessed alongside seco-CBI-indole2 (4) in an antitumor model consisting of L1210 murine leukemia cells implanted ip into […] which has been used historically as an initial antitumor model for comparisons in this class.^11,12,14,15 A dose range of 300 to 9000 μg/kg for prodrug (+)-6 (scaled to its in vitro cytotoxic activity IC50) and 60 to 500 μg/kg for seco-CBI-indole2 (4) and a dosing schedule (administered three times ip on days 1, 5, and 9) for both compounds was employed.
B6D2F1 mice were injected intraperitoneal (i.p.) with syngeneic L1210 cells (1×10^6) on day 0. Ten mice were randomly assigned to control vehicle or treatment groups for compounds (+)-4 and (+)-6 at doses of 60, 100, 250, and 500 μg/kg/inj for (+)-4 or 300, 1000, 3000, and 9000 μg/kg/inj for (+)-6. Compounds (+)-4 and (+)-6 were formulated in 100% DMSO, and injected i.p. on study days 1, 5, and 9. Following injection of tumor cells, animals were monitored daily and weighed two times per week. Percent survival (T/C) for treated and control groups were determined by dividing the total survival days for each treatment group by the total survival days for the control group and multiplying ×100. All animal studies were carried out in the animal facilities of The University of Kansas Medical Center with strict adherence to the guidelines of the IACUC Animal Welfare Committee of KUMC (IACUC approval #2009-1837).

[4] = Chemical reactivity of N-Boc-prodrug 16 under acidic, basic and nucleophilic conditions; type: physicochemical
Protocol: In order to determine the ability of the free drug to be released under physiological conditions, the chemical reactivity of N-Boc-prodrug 16 was assessed under a variety of acidic, basic, and nucleophilic conditions.

Solvolysis of 21 = type: physicochemical; conditions: 25° C., UV 255 nm; for half-life: CH3OH / aqueous citrate-phosphate buffer, read-out: solvolysis t1/2 (converted); for solvolysis rate constant k: CH3OH
Protocol: Compound 21 was dissolved in CH3OH (1.5 mL). […] After mixing, the solvolysis solutions were stoppered and kept at 25° C. in the dark. The UV spectrum of the solutions was measured 3-4 times in the first two days and once a day for 2-4 weeks. The UV monitoring was continued until no further change was detectable. The long-wavelength absorption at 380 nm and short-wavelength absorption at 255 nm were monitored. The solvolysis rate constant and half-life were calculated from the data recorded at the short wavelength (255 nm) from the least square treatment of the slopes of plots of time versus ln [(AFinal−Ainitial)/(Afinal−A)].

[5] = calf serum; cited from earlier work
[6] = test system: L1210 murine leukemia cell line; conditions: L1210, natural enantiomer, literature ref 9; cited from earlier work
[7] = human, plasma; cited from earlier work
[8] = Mus musculus, L1210, read-out: IC50 L1210 natural, natural enantiomer, Table 2
[9] = Mus musculus, L1210, read-out: IC50 L1210 unnatural, unnatural enantiomer, Table 2
[10] = Mus musculus, L1210, read-out: In vitro IC50 L1210 natural, natural (S)-enantiomer, Table 4
[11] = Mus musculus, L1210, read-out: In vitro IC50 L1210 unnatural, unnatural (R)-enantiomer, Table 4
[12] = 60 μg/kg i.p. on days 1, 5, and 9
[13] = 100 μg/kg i.p. on days 1, 5, and 9
[14] = 250 μg/kg i.p. on days 1, 5, and 9
[15] = 500 μg/kg i.p. on days 1, 5, and 9
[16] = pH 1 buffer (: 0.2 M Na2HPO4: H2O 4:1:20)
[17] = pH 2 buffer (1.0 M citric acid: 0.2 M Na2HPO4: H2O 4:1:20)
[18] = natural (S)-enantiomer, Table 4

With `COC(=O)c1cc2c([nH]1)C(=O)C=C1N(C(=O)c3cc4cc(OC)c(OC)c(OC)c4[nH]3)CC3CC123` (stereo not drawn) [Compound 1, Duocarmycin SA, reference compound] as the compound, how does the IC50 [1, 8] read?
The IC50 was 0.01 nM.

And the IC50 [1, 9]?
The IC50 was 0.1 nM.

What about the IC50 [1, 10] of the same compound?
Its IC50 is 0.01 nM.

And the IC50 [1, 11]?
The IC50 was 0.1 nM.

With `COc1c(O)c2c(c3cc(C(=O)N4CCc5c4c(O)c(OC)c4[nH]c(C(=O)N6CC7CC78C6=CC(=O)c6[nH]cc(C)c68)cc54)[nH]c13)CCN2C(N)=O` (stereo not drawn) [Compound 2, CC-1065, reference compound] as the compound, how does the IC50 ([1]; Mus musculus, L1210, natural (S)-enantiomer, Table 4, read-out: In vitro IC50 L1210 natural) read?
Its IC50 is 0.02 nM.

What about the IC50 ([1]; Mus musculus, L1210, natural enantiomer, Table 2, read-out: IC50 L1210 natural) of the same compound?
The IC50 was 0.02 nM.

And the IC50 ([1]; Mus musculus, L1210, unnatural (R)-enantiomer, Table 4, read-out: In vitro IC50 L1210 unnatural)?
The IC50 was 0.02 nM.

And the IC50 ([1]; Mus musculus, L1210, unnatural enantiomer, Table 2, read-out: IC50 L1210 unnatural)?
The IC50 was 0.02 nM.

Which IC50 ([1]; L1210, free drug, natural enantiomer, read-out: IC50) does the source give for `O=C(Nc1ccc2[nH]c(C(=O)N3C[C@@H](CCl)c4c3cc(O)c3ccccc43)cc2c1)c1cc2ccccc2[nH]1` [Compound 4, seco-CBI-indole2, reference compound] here?
Its IC50 is 0.03 nM.

And the IC50 ([1]; natural (S)-enantiomer, Table 4, read-out: In vitro IC50 L1210 natural)?
The IC50 was 0.03 nM.

And the IC50 ([1]; natural enantiomer, Table 2, read-out: IC50 L1210 natural)?
Its IC50 is 0.03 nM.

And the IC50 ([1]; unnatural (R)-enantiomer, Table 4, read-out: In vitro IC50 L1210 unnatural)?
The IC50 was 0.9 nM.

What about the IC50 ([1]; unnatural enantiomer, Table 2, read-out: IC50 L1210 unnatural) of the same compound?
The IC50 was 0.9 nM.

And the optimal dose range [2]?
Its optimal dose range is 0.06 to 0.1 mg/kg.

And the “MSP (Mean Survival Period)” value [3, 12]?
The value was over 34.7 days.

And the “T/C (Treated/Control MSP x 100)” value [3, 12]?
Its value is over 197.

And the “Surviving Mice” value [3, 12]?
The value was 1/10.

What about the “MSP (Mean Survival Period)” value [3, 13] of the same compound?
The value was 6.4 days.

What about the “T/C (Treated/Control MSP x 100)” value [3, 13] of the same compound?
The value was 36.

And the “Surviving Mice” value [3, 13]?
Its value is 0/10.

What about the “MSP (Mean Survival Period)” value [3, 14] of the same compound?
Its value is 3.7 days.

And the “T/C (Treated/Control MSP x 100)” value [3, 14]?
The value was 21.

And the “Surviving Mice” value [3, 14]?
Its value is 0/10.

And the “MSP (Mean Survival Period)” value [3, 15]?
Its value is 3.0 days.

And the “T/C (Treated/Control MSP x 100)” value [3, 15]?
The value was 17.

What about the “Surviving Mice” value [3, 15] of the same compound?
Its value is 0/10.

And the “toxicity leading to premature death of the animals” value ([3]; doses of 100-500 μg/kg i.p. on days 1, 5, and 9)?
Its value is “toxic”.

For `CC(C)(C)OC(=O)N1C[C@@H](CCl)c2c1cc1c3c(cccc23)NC(=O)O1` [Compound 16, tert-Butyl 10-(Chloromethyl)-5-oxo-9,10-dihydro-4H-pyrrolo[3′,2′:5,6]naphtho[1,8-de][1,3]oxazine-8(5H)-carboxylate], which “stability of the cyclic carbamate to hydrolysis under acidic conditions” value ([4]; 1:1 TFA:CH2Cl2, 4 N HCl in EtOAc, 48 h at 23° C., Boc group cleaved) is on record?
The value was “stable”.

And the “stability to BnNH2” value ([4]; BnNH2 (100 equiv) in MeOH, 24 h)?
The value was “rapidly cleaved”.

What about the “stability to BnNH2” value ([4]; BnNH2 in THF) of the same compound?
Its value is “stable”.

And the “stability in the presence of nucleophiles BnSH and BnOH” value ([4]; BnSH and BnOH (100 equiv) in MeOH and THF at 23° C. for 48 h)?
Its value is “completely stable”.

And the “fold less active than N-Boc-CBI” value ([1]; L1210)?
The value was 50-100 fold.

What about the IC50 [1, 8] of the same compound?
Its IC50 is 4900 nM.

And the IC50 [1, 9]?
The IC50 was 5800 nM.

Which results are given for `Nc1cccc2c1C(=O)C=C1N(C(=O)c3cc4cc(NC(=O)c5cc6ccccc6[nH]5)ccc4[nH]3)CC3CC123` (stereo not drawn) [Compound 20, N-(2-(5-Amino-4-oxo-1,2,9,9a-tetrahydrocyclopropa[c]benzo[e]indole-2-carbonyl)-1H-indol-5-yl)-1H-indole-2-carboxamide]?
fold less active than 4 (active enantiomer) ([1]; L1210, inferred from the racemate IC50): 3-4 fold; IC50 ([1]; L1210, racemic parent drug, read-out: IC50): 0.21 nM

For `CC(C)(C)OC(=O)N1CC2CC23C1=CC(=O)c1c(N)cccc13` (stereo not drawn) [Compound 21, N-tert-Butyloxycarbonyl-5-amino-1,2,9,9a-tetrahydrocyclopropa[c]benzo[e]indole-4-one], which half-life (Solvolysis of 21; [16]) is on record?
The half-life was 8.52 h.

What about the half-life (Solvolysis of 21; [17]) of the same compound?
Its half-life is 40.3 h.

And the “solvolysis rate constant k” value (Solvolysis of 21; [16])?
Its value is 1.5e-05 s⁻¹.

What about the “solvolysis rate constant k” value (Solvolysis of 21; [17]) of the same compound?
Its value is 5e-06 s⁻¹.

Which IC50 [1, 10] does the source give for `N=C1Nc2cccc3c4c(cc(c23)O1)N(C(=O)c1cc2cc(NC(=O)c3cc5ccccc5[nH]3)ccc2[nH]1)C[C@H]4CCl` [Compound 24, (S)—N-(2-(10-(chloromethyl)-5-imino-5,8,9,10-tetrahydro-4H-pyrrolo[3′,2′,5,6]naphtho[1,8-de][1,3]oxazine-8-carbonyl)-1H-indol-5-yl)-1H-indole-2-carboxamide] here?
The IC50 was 0.5 nM.

What about the IC50 [1, 11] of the same compound?
Its IC50 is 64 nM.

What about the “In vitro IC50 L1210 natural” value [1, 18] of the same compound?
Its value is “in the nanomolar range”.

With `O=C(Nc1ccc2[nH]c(C(=O)N3C[C@@H](CCl)c4c3cc3c5c(cccc45)NC(=S)O3)cc2c1)c1cc2ccccc2[nH]1` [Compound 25, (S)—N-(2-(10-(chloromethyl)-5-thioxo-5,8,9,10-tetrahydro-4H-pyrrolo[3′,2′,5,6]naphtho[1,8-de][1,3]oxazine-8-carbonyl)-1H-indol-5-yl)-1H-indole-2-carboxamide] as the compound, how does the IC50 [1, 10] read?
Its IC50 is 0.29 nM.

What about the IC50 [1, 11] of the same compound?
The IC50 was 62 nM.

What about the “In vitro IC50 L1210 natural” value [1, 18] of the same compound?
The value was “in the nanomolar range”.

What does the source list for `O=C(Nc1ccc2[nH]c(C(=O)N3C[C@@H](CCl)c4c3cc3c5c(cccc45)N=C(SCCN4C(=O)c5ccccc5C4=O)O3)cc2c1)c1cc2ccccc2[nH]1` [Compound 29, (S)—N-(2-(10-(chloromethyl)-5-((2-(1,3-dioxoisoindolin-2-yl)ethyl)thio)-9,10-dihydro-8H-pyrrolo[3′,2′:5,6]naphtho[1,8-de][1,3]oxazine-8-carbonyl)-1H-indol-5-yl)-1H-indole-2-carboxamide]?
IC50 [1, 10]: < 100 nM; IC50 ([1]; read-out: In vitro IC50 L1210 natural, natural (S)-enantiomer, Table 4): 83.6 nM

With `COC(=O)c1c(C)[nH]c2c(OC(=O)N3CCN(C)CC3)cc3c(c12)[C@H](CBr)CN3C(=O)c1cc2cc(OC)c(OC)c(OC)c2[nH]1` [KW-2189] as the compound, how does the t1/2 [5] read?
The t1/2 was 20 h.

Which IC50 [6] does the source give for `CC(C)(C)OC(=O)N1CC2CC23C1=CC(=O)c1ccccc13` (stereo not drawn) [N-Boc-CBI] here?
The IC50 was 80 nM.

Which t1/2 [7] does the source give for `CCN(CC)c1ccc2cc(C(=O)Nc3ccc4[nH]c(C(=O)N5C[C@@H](CCl)c6c5cc(OC(=O)Nc5ccccc5)c5[nH]cc(C)c65)cc4c3)oc2c1` [carzelesin] here?
The t1/2 was under 1 h.
